We go through 4 compounds from patent US12502480B1, “System and method for administration of a substance” (Abusarah, Inc., priority 2025, dated 2025).

The conditions of data set [1]: cited from earlier work; for Cmax / Tmax: arterial.
For data set [2] the following is noted: cited from earlier work; for Cmax / AUC0-24 h: Caucasians 18-60 years of age; for Cmax: in ng/mL; for AUC0-24 h: in ng·h/mL.
The conditions of data set [3]: cited from earlier work.
The nature of data set [4]: Pharmacokinetics of inhaled (nebulized) esketamine versus IV infusion, arterial concentrations. To be noted: comparison across Examples 3 and 4, not within the same individuals.
The nature of data set [5]: clinical. To be noted: human, in vivo.
The conditions of data set [6]: cited from earlier work. The source holds these as a separate data set.
Setting [7] is: inhalation of 0.35 mg/kg esketamine.
Setting [8] is: inhalation of 0.5 mg/kg esketamine.
Setting [9] is: inhalation of 0.7 mg/kg esketamine.
The mark [10] stands for this setting: IN administration, based upon the models.

Molecules are shown by their SMILES. Like-named read-outs stand apart in the source and are kept apart here.

Take `N[C@]1(c2ccccc2Cl)CCCCC1=O` [noresketamine]: the Cmax in data set [1] (setting [7]) was 52 ng/mL; in data set [1] (setting [8]), 97 ng/mL; in data set [1] (setting [9]), 153 ng/mL; in data set [2] (28 mg IN esketamine), 59.1; in data set [2] (56 mg IN esketamine) it was 119.7; in data set [2] (84 mg IN esketamine), 180. Also, the figures for the Tmax in data set [1] (setting [7]), in data set [1] (setting [8]) and in data set [1] (setting [9]) were 63 min, 48 min and 41 min, respectively. Further, the AUC0-24 h is recorded as 274.4 in data set [2] (28 mg IN esketamine), 516.3 in data set [2] (56 mg IN esketamine) and 758 in data set [2] (84 mg IN esketamine).
In the case of `Cc1cccc([C@H](C)c2cnc[nH]2)c1C` [dexmedetomidine], in data set [3] (2-compartment disposition model), the “disposition, intravenous versus intranasal administration” value was “similar”. Further, in data set [3] (both atomization and drops), the intranasal bioavailability is recorded as about 40%. The “uptake kinetics of atomized and intranasal relative to IV” value in data set [3] (in vivo, iv) is recorded as “slower update kinetics”. Further, the “absorption rate constant (kabs)” value was 0.857 h⁻¹ in data set [3] (intranasal by atomizer) and 0.725 h⁻¹ in data set [3] (intranasal by drops). Further, the figures for the “mean transit time (delay in uptake)” value in data set [3] (intranasal by atomizer) and in data set [3] (intranasal by drops) were 0.176 h and 0.163 h, respectively.
Take `CN[C@]1(c2ccccc2Cl)CCCCC1=O` [esketamine, S-ketamine]: the “fraction of dose directly absorbed through the alveoli” value in data set [1] (INH administration) is 70%. Also, the “fraction of dose travelling via a slower pathway (lung, GI or oropharyngeal absorption)” value in data set [1] (INH administration) is given as 30%. Moreover, the “rate constant of the slow transit” value in data set [1] (INH administration) was 0.05 min⁻¹. Moreover, the “half-life of the slow transit” value in data set [1] (INH administration, from rate constant) was 13 min. Also, in data set [1] (INH, at the higher doses), the “dose-dependent reduction in bioavailability” value was 20%. Besides, the “modeled F value (extent of bioavailability)” value in data set [1] (across INH doses, multicompartment model) was 0.70. The bioavailability in data set [1] (following INH administration) is 70%. The “fraction metabolized to noresketamine” value in data set [1] (in vivo) is given as 78%. The Cmax is 128 ng/mL in data set [1] (setting [7]); 180 ng/mL in data set [1] (setting [8]); 227 ng/mL in data set [1] (setting [9]); 43.8 in data set [2] (28 mg IN esketamine); 72.5 in data set [2] (56 mg IN esketamine); 101 in data set [2] (84 mg IN esketamine). The values for the Tmax in data set [1] (setting [7]), in data set [1] (setting [8]) and in data set [1] (setting [9]) were 22 min, 15 min and 25 min, respectively. In addition, the AUC0-24 h in data set [2] (28 mg IN esketamine) was 147.3; in data set [2] (56 mg IN esketamine) it was 254.7; in data set [2] (84 mg IN esketamine), 362.2. Further, the “fraction of dose absorbed through the nasal cavity” value in data set [2] (setting [10]) is reported as about 54%. Further, the “fraction of dose swallowed” value in data set [2] (setting [10]) is on record as 46%. Also, the “swallowed percentage reaching the systemic circulation after first-pass metabolism” value in data set [2] (IN administration) was 18.6%. In addition, the mean absorption time in data set [2] (absorption through the gut) was 2.02 h; in data set [2] (absorption through the nasal mucosa), 0.333 h. Besides, the absolute bioavailability in data set [2] (intranasal) is about 50%. Moreover, in data set [4], the “absorption following INH versus IN” value is on record as “more rapid”.
For `C=CCN1CC[C@]23c4c5ccc(O)c4O[C@H]2C(=O)CC[C@@]3(O)[C@H]1C5` [naloxone], the figures for the Cmax in data set [5] (1 mg), in data set [5] (2 mg) and in data set [5] (4 mg) were 2.1 ng/mL, 4.3 ng/mL and 10.1 ng/mL, respectively. In addition, in data set [5] (iv, 0.4 mg), the half-life amounted to 3.4 min. Besides, the bioavailability in data set [6] (IM/SC dose) is on record as 98.3%; in data set [6] (nasal spray), 40-55%. In addition, the “K (elimination rate constant), best-fit value” (0.4 mg IV, single elimination model) stood at 12.16 h⁻¹. Besides, the “kabs (absorption rate constant)” value (IN doses of 1, 2 and 4 mg, best fit of one-phase association and dissociation model) is 4.47 h⁻¹. Besides, under “IN doses of 1, 2 and 4 mg, model fit”, the “elimination rate-constant, mean value” worked out at 0.82 h⁻¹.
